According to US5436243A, “Aminoanthraquinone derivatives to combat multidrug resistance” (priority 1993, dated 1995):

How the values were obtained:
[1] = molecular target: T1, P-glycoprotein in MCF7 Adr 10 membrane vesicles (Homo sapiens, UniProt P08183)
casein kinase 2 = assay: Casein kinase 2 inhibition; type: biochemical
Description: (§1) One possible explanation for stimulation of phosphorylation of P-glycoprotein and MARCKS is that 1c may activate PKC or other cellular kinases by signal transduction pathways that have not yet been identified to phosphorylate these proteins. An alternative explanation for stimulation of phosphorylation of P-glycoprotein and MARCKS is that 1c inhibits protein phosphatases.

[2] = [3H] VLB binding to MCF7 WT membrane vesicles; parameters: species or system human; conditions: MCF7 WT membrane vesicles
Protocol: METHOD: Membrane vesicles from sensitive and MDR MCF7 were prepared by nitrogen cavitation and isolated by centrifugation in discontinuous sucrose gradients. […] In the presence of 100 nM [^3 H] VLB and ATP, total and nonspecific binding of [^3 H] VLB (experimentally defined as binding in the presence of a 100 μM unlabeled VLB) was measured. Association of [^3 H] […] In contrast, association of [^3 H] […] VLB with MCF7 WT vesicles.

[3] = system: catalytic subunits of protein kinase A; assay: Protein kinase A catalytic subunit inhibition; type: biochemical
Description: as §1

MCF7 WT = assay: 72 hour MTT proliferation assay, potentiation of sensitivity in MCF7 WT; type: cell-based, human; conditions: MCF7 WT
Protocol: In 72 hour MTT proliferation assays using the following method, compounds 1b, 1c and 1d were assessed for inhibition of Vinca alkaloid and anthracycline drug resistance in MDR MCF7. Additionally, compounds 1b and 1c were assessed for potentiation of sensitivity to Vinca alkaloid and anthracycline drugs in the parental MCF7 WT cell line.
METHOD: 5000 cells per well were plated in 100 μl of IMDM containing 10% FCS and allowed to adhere overnight. The following day the cells were treated with N-substituted 1,4-diaminoanthraquinones and exposed to graded concentrations of antineoplastic agents. 50 μl of IMDM 10% FCS containing either vehicle or N-substituted 1,4-diaminoanthraquinones at 3 times the final tested concentration was added to cells at timed intervals. The plates were incubated for 2 hours at 37° C. to allow maximal cellular accumulation of N-substituted 1,4-diaminoanthraquinones. 40 μl aliquots of IMDM 10% FCS containing either vehicle or graded concentrations of antineoplastic drugs at 5 times the final concentration were added to treatment groups. Following this addition, 10 μl of IMDM 10% FCS containing either vehicle or N-substituted 1,4-diaminoanthraquinone at 5 times the final concentration was added to each group of wells. The cells were incubated for 72 hours after treatment. At this time the viable cells in each treatment group were estimated in a colorimetric assay by adding MTT and incubating the cells at 37° C. for 3-4 hours. The media in each well was aspirated and MTT formazan was solubilized in isopropyl alcohol acidified with 0.1 N HCl. The absorbance of the solubilized formazan was quantitated using a plate reader spectrophotometer. […] The concentrations of antineoplastic drugs which inhibited proliferation by 50% (IC50's) were estimated by calculating a percentage from the ratio: antineoplastic drug treated groups/control group absorbance and plotting the dose response curve on semilog paper. The IC50 was estimated from this curve. To assess the effects of inhibition of resistance by N-substituted 1,4-diaminoanthraquinones, the percentages were calculated relative to cell groups treated with resistance modifier alone and IC50's calculated as above. A reversal factor was calculated by dividing the IC50 to the antineoplastic drug alone (Control group) by the IC50 to antineoplastic drug in cells treated with resistance modifier.

[4] = Partition in Bligh-Dyer extracts; type: physicochemical; conditions: Bligh-Dyer extracts of treated cells
Protocol: At these wavelengths, there was minimal absorbance by cellular components contained in the chloroform phase. […] METHOD: […] The monolayers were treated with 25 μM 1b or 1c and incubated at 37° C. After incubating the samples for the times indicated in FIG. 1, the monolayers were washed three times with DPBS and detached using 1 ml of Trypsin-EDTA.An aliquot of the cell suspension was counted using a Coulter Counter and a 0.8 ml aliquot was extracted in a Bligh-Dyer extraction (Bligh et at., Can. J. Biochem. 31:911-916 (1959)). The absorbance of the lower chloroform phase was measured at 648 nm and 600 nm using a spectrophotometer. The amount of 1b or 1c present in the extract was quantitated from a standard curve performed in cell extracts. The data is expressed as nmol anthraquinone/10^6 cells.

[5] = molecular target: T1, P-glycoprotein in MCF7 Adr 10 membrane vesicles; assay: biochemical; conditions: read-out: decrease of specific binding of [3H] VLB
serine threonine kinases = assay: In vitro assays of serine threonine kinases; type: biochemical
MARCKS protein = assay: Phosphorylation of MARCKS in intact MCF7 Adr 10 cells; type: cell-based, human; conditions: MCF7 Adr 10, representative time course experiment, FIG. 12
Description: The effects of compound 1c on phosphorylation of the P-glycoprotein and the MARCKS protein (myristoylated alanine-rich C kinase substrate) was studied in intact cells labeled with [^32 P] orthophosphate. The MARCKS protein (also known as the 80 to 87 kD protein) is observed to be rapidly phosphorylated subsequent to PKC activation by phorbol esters, cell permeant diacylglycerols, growth factor and hormonal stimulation in a variety of cell types from several species. […] In these experiments, phosphorylation of MARCKS was used as a marker of cellular PKC activity. The effects of 1c on phosphorylation states of the P-glycoprotein and MARCKS protein were studied to test the possibility that this compound may be inhibiting PKC in cells; due to metabolism to an active PKC inhibitor or by achieving inhibitory concentrations in the microenvironment of the P-glycoprotein.
METHOD: A monoclonal antibody to the P-glycoprotein, C219, was used to immunoprecipitate the P-glycoprotein and a polyclonal rabbit antibody was used to immunoprecipitate the MARCKS protein from extracts of cells labeled with [^32 P]. MARCKS was immunoprecipitated after preclearing the aliquot with normal rabbit IgG. MCF7 Adr 10 cells were labeled with [^32 P] orthophosphate for two hours. […] P-glycoprotein and MARCKS were immunoprecipitated from aliquots of the same sample containing equivalent radioactivity.

T1 sequence (P08183 whole entry): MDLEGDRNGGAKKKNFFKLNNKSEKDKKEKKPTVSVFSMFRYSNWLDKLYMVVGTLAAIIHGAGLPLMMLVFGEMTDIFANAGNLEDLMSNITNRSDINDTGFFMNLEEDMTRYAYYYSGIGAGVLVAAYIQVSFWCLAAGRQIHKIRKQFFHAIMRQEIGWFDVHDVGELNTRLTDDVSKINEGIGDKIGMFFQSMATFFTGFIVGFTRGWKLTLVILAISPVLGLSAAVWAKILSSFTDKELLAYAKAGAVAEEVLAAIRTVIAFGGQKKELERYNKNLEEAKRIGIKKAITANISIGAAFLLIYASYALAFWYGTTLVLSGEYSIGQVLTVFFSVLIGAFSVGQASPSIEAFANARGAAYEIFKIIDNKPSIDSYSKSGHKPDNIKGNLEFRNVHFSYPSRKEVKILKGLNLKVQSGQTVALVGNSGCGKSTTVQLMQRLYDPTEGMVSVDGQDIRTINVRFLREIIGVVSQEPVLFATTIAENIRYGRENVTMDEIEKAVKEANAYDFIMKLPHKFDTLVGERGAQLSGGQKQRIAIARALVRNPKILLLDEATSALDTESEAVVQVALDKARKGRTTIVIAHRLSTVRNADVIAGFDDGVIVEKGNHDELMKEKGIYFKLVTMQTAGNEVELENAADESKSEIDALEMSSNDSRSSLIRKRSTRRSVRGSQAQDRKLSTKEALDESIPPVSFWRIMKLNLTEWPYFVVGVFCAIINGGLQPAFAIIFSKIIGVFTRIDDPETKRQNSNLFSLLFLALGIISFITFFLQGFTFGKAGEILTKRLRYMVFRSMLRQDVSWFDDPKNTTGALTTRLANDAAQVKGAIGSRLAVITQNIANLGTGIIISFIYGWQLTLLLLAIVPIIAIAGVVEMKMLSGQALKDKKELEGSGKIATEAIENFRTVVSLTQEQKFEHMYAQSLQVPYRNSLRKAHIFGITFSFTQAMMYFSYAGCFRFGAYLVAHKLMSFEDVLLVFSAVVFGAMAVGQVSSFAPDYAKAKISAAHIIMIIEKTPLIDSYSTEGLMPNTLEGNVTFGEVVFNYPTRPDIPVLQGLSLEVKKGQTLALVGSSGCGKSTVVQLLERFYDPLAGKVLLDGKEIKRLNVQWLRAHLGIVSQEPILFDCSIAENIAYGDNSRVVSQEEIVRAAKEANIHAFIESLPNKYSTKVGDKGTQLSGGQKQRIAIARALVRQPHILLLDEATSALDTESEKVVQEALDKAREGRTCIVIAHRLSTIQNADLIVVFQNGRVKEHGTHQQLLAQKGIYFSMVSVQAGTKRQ

O=C1c2ccccc2C(=O)c2c(NCCCN3CCOCC3)ccc(NCCCN3CCOCC3)c21 [Compound 1c, 1,4-bis-[[3'(4-morpholino)propyl]amino]anthraquinone]
effect on non-specific binding of [3H] VLB [1]: no effect | casein kinase 2 inhibitory activity (casein kinase 2): did not inhibit | effect on specific binding of [3H] VLB [2]: no effect | protein kinase A inhibitory activity [3]: did not inhibit | effect on toxicity of vincristine in drug sensitive cells (MCF7 WT): enhances toxicity of vincristine in drug sensitive cells | Reversal Factor (VCR) (MCF7 WT; [1c] 1.0 μM): 1.9 | blue color partitioning with cellular phospholipids in the lower chloroform phase [4]: > 95% | inhibition at 5 µM [5]: 29% | inhibition at 10 µM [5]: 42% | inhibition at 25 µM [5]: 69% | activity in in vitro assays of serine threonine kinases (serine threonine kinases): does not show significant activity | increase of MARCKS phosphorylation (MARCKS protein): 3 fold
